Where a name gives a salt, the structure may show the parent alone.
What was measured:
human H3 receptor = molecular target: T1, human H3 receptor (Homo sapiens, UniProt Q9Y5N1); test: Human H3 radioligand binding ([3H]-N-alpha-methylhistamine, SPA); details: membranes of CHO cells expressing human H3 receptor; [3H]-N-alpha-methylhistamine about 1 nM
T1 construct: expressed in transfected cells; membrane preparation
Description: (§1) Methods: CHO cells stably expressing the human H3 receptor (GenBank: NM_007232) were harvested and cell pellets were frozen (−80° C.). Cell pellets were resuspended in 5 mM Tris-HCl, pH 7.5 with […] and a cocktail of protease inhibitors (Complete Protease Inhibitior Tablets, Roche Diagnostics). Cells were disrupted using a polytron cell homogenizer and the suspension was centrifuged at 1000×g for 10 minutes at 4° C. The pellet was discarded and the supernatant centrifuged at 40,000×g for 30 min at 4° C. This membrane pellet was washed in membrane buffer containing 50 mM Tris-HCl, pH 7.5 with 0.6 mM EDTA, 5 mM MgCl2 and protease inhibitors, recentrifuged as above and the final pellet resuspended in membrane buffer plus 250 mM sucrose and frozen at −80° C.
(§2) Radioligand Binding. Membranes were resuspended in 50 mM Tris HCl (pH 7.4), 5 mM MgCl2, 0.1% BSA. The membrane suspensions (10 μg protein per well) were incubated in a 96 well microtiter plate with [^3H]-N-alpha-methylhistamine (approximately 1 nM final concentration), test compounds at various concentrations (0.01 nM-30 μM) and scintillation proximity beads (Perkin Elmer, FlashBlueGPCR Scintillating Beads) in a final volume of 80 μl for 4 hours at room temperature, protected from light. Non-specific binding was determined in the presence of 10 μM clobenpropit. Radioligand bound to receptor, and therefore in proximity to the scintillation beads, was measured using a MicroBeta scintillation counter.

[1] = molecular target: T2, rat histamine H3 receptor (Rattus norvegicus, UniProt Q9QYN8); test: Rat H3 radioligand binding ([3H]-N-alpha-methylhistamine, SPA); details: membranes of CHO-A3 cells expressing rat H3 receptor; [3H]-N-alpha-methylhistamine about 1 nM
T2 construct: encoding the entire 445-amino-acid rat histamine H3 receptor; expressed in transfected cells; membrane preparation
T2 sequence (Q9QYN8 whole entry): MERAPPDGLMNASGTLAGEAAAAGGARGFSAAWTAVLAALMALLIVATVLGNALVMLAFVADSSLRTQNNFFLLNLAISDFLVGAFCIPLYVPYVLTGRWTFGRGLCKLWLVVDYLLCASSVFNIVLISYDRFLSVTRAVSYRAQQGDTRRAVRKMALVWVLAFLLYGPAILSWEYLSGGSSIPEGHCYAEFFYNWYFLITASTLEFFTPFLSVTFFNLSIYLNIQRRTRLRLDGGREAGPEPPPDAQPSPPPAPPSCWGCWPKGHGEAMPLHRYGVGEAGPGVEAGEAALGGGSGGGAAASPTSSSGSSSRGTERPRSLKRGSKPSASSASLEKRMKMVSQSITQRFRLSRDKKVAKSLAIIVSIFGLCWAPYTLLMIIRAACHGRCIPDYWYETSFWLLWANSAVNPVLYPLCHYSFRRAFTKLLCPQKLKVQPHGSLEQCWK
Source text: as §1, with “Cell line development and membrane preparation. The rat” for “Methods: CHO cells stably expressing the human”, “cDNA was PCR amplified from reverse-transcribed RNA pooled from rat thalamus, hypothalamus, striatum and prefrontal cortex with a sequence corresponding to by #338-1672 of Genbank file #NM_053506, encoding the entire 445-amino-acid rat histamine H3 receptor. This was engineered into the pIRES-neo3 mammalian expression vector, which was stably transfected into the CHO-A3 cell line (Euroscreen, Belgium), followed by clonal selection by limiting dilution. Cells” for “(GenBank: NM_007232)”
as §2

T1 sequence (Q9Y5N1 whole entry): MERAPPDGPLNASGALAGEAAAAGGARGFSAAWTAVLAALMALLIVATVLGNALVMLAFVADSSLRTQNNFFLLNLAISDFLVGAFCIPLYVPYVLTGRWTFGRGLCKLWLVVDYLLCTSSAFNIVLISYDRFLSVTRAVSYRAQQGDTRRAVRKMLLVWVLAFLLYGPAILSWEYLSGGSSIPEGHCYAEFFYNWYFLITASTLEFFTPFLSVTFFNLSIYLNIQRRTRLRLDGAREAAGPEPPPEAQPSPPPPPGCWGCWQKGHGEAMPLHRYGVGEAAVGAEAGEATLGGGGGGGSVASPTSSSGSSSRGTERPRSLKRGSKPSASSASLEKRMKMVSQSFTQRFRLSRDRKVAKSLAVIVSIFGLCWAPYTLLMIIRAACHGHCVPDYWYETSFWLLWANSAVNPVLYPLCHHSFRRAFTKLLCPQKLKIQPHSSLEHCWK

| Compound | Ki (human H3 receptor) [nM] | Ki [1] [nM] | melting point [°C] |
| --- | --- | --- | --- |
| Cc1cc2c(cc1-c1ccc(=O)[nH]n1)COC1(CCN(C3CCC3)CC1)O2 [Example 29] | 200 to 1000 | 200 to 1000 | 230 to 232 |
| O=C1NN=C(c2ccc3c(c2)CCC2(CCNCC2)O3)C2CC12 (stereo not drawn) [Example 6, 6-(3,4-diaza-bicyclo[4.1.0]hept-4-en-2-one-5-yl)-spiro[3,4-dihydrobenzopyran-2,4′-piperidine]] | > 1000 | > 1000 |  |
| O=c1cc(-c2ccc3c(c2)COC2(CCN(C4CCC4)CC2)O3)cn[nH]1 (as salt: HCl) [Example 26] |  |  | 258 to 262 |
| O=c1cccnn1CC(O)COc1ccc2c(c1)CCC1(CCN(C3CCC3)CC1)O2 (stereo not drawn) (as salt: HCl) [Example 25, 1′-Cyclobutyl-6-(3-(2-pyridazin-3-one)-2-hydroxypropyloxy]-spiro[3,4-dihydrobenzopyran-2,4′-piperidine]] |  |  | 201 to 203 |
| Cc1c(-c2ccc(=O)[nH]n2)ccc2c1COC1(CCN(C3CCC3)CC1)O2 (as salt: HCl) [Example 31] |  |  | 255 to 257 |
| Cc1cc2c(cc1-c1ccc(=O)n(C)n1)COC1(CCN(C3CCC3)CC1)O2 (as salt: HCl) [Example 30] |  |  | 269 to 270 |
| CC(C)N1CCC2(CCc3cc(C4=NNC(=O)C5CC45)ccc3O2)CC1 (stereo not drawn) [Example 9] | < 200 | < 200 |  |
| Cc1c(-c2ccc3c(c2)COC2(CCN(C4CCC4)CC2)O3)n[nH]c(=O)c1C (as salt: HCl) [Example 41] |  |  | > 300 |
| Cc1c(-c2ccc(=O)[nH]n2)ccc2c1COC1(CCN(C3CCC3)CC1)O2 [Example 31] | < 200 | < 200 |  |
| Cc1cc(=O)[nH]nc1-c1ccc2c(c1)COC1(CCN(C3CCC3)CC1)O2 (as salt: HCl) [Example 40] |  |  | 265 to 267 |
| O=c1cccnn1CCCOc1ccc2c(c1)CCC1(CCN(C3CCC3)CC1)O2 (as salt: HCl) [Example 24, 1′-Cyclobutyl-6-(3-(2-pyridazin-3-one)propyloxy]-spiro[3,4-dihydrobenzopyran-2,4′-piperidine]] |  |  | 207 to 209 |
| O=c1cc(-c2ccc3c(c2)COC2(CCN(C4CCC4)CC2)O3)cn[nH]1 [Example 26] | < 200 | < 200 |  |
| O=C1NN=C(c2ccc3c(c2)COC2(CCN(C4CCC4)CC2)O3)C2CCC12 (stereo not drawn) (as salt: HCl) [Example 38] |  |  | 271 to 274 |
| O=C1NN=C(c2ccc3c(c2)CCC2(CCN(C4CCC4)CC2)O3)C2CCC12 (single isomer, unassigned) [Example 22] | < 200 | < 200 |  |
| Cc1cc2c(cc1-c1ccc(=O)n(C)n1)COC1(CCN(C3CCC3)CC1)O2 [Example 30] | < 200 | < 200 |  |
| O=c1cccnn1CC(O)COc1ccc2c(c1)CCC1(CCN(C3CCC3)CC1)O2 (stereo not drawn) [Example 25, 1′-Cyclobutyl-6-(3-(2-pyridazin-3-one)-2-hydroxypropyloxy]-spiro[3,4-dihydrobenzopyran-2,4′-piperidine]] | < 200 | < 200 |  |
| O=c1cccnn1CCCOc1ccc2c(c1)CCC1(CCN(C3CCC3)CC1)O2 [Example 24, 1′-Cyclobutyl-6-(3-(2-pyridazin-3-one)propyloxy]-spiro[3,4-dihydrobenzopyran-2,4′-piperidine]] | < 200 | < 200 |  |
| CC1CC(=O)NN=C1c1ccc2c(c1)COC1(CCN(C3CCC3)CC1)O2 (stereo not drawn) (as salt: HCl) [Example 39] |  |  | 209 to 214 |
| O=C1NN=C(c2ccc3c(c2)COC2(CCN(C4CCC4)CC2)O3)C2CC12 (stereo not drawn) (as salt: HCl) [Example 37] |  |  | > 300 |
| O=C1NN=C(c2ccc3c(c2)COC2(CCN(C4CCC4)CC2)O3)C2CCC12 (stereo not drawn) [Example 38] | < 200 | < 200 |  |
| Cc1cc(=O)[nH]nc1-c1ccc2c(c1)COC1(CCN(C3CCC3)CC1)O2 [Example 40] | < 200 | < 200 |  |
| CC1(C)CC(c2ccc3c(c2)COC2(CCN(C4CCC4)CC2)O3)=NNC1=O [Example 34, 1′-Cyclobutyl-6-[5H-4,4-dimethylpyridazin-3-one)-spiro[1,3-benzodioxine-2,4′-piperidine]] | < 200 | < 200 |  |

Next, values leading:

| Ki (human H3 receptor) [nM] | Ki [1] [nM] | melting point [°C] | Compound |
| --- | --- | --- | --- |
| < 200 | < 200 | 258 to 259 | O=c1[nH]nc(-c2ccc3c(c2)COC2(CCN(C4CCC4)CC2)O3)c2ccccc12 [Example 32] |
| < 200 | < 200 |  | O=C1NN=C(c2ccc3c(c2)COC2(CCN(C4CCC4)CC2)O3)C2CC12 (stereo not drawn) [Example 37] |
| < 200 | < 200 | 273 to 275 | O=c1ccc(-c2ccc3c(c2)CCC2(CCN(C4CCC4)CC2)O3)n[nH]1 [Example 21] |
| < 200 | < 200 | 185 to 187 | Cn1nc(-c2ccc3c(c2)COC2(CCN(C4CCC4)CC2)O3)ccc1=O [Example 27] |
| < 200 | < 200 |  | O=C1NN=C(c2ccc3c(c2)CCC2(CCN(C4CCC4)CC2)O3)C2CCC12 (racemic) [Example 10, 1′-Cyclobutyl-6-(3,4-diaza-bicyclo[4.2.0]oct-4-en-2-one-5-yl)-spiro[3,4-dihydrobenzopyran-2,4′-piperidine]] |
| < 200 | < 200 | 189 to 191 | O=C1NN=C(c2ccc3c(c2)CC2(CCN(C4CCC4)CC2)O3)C2CC12 (stereo not drawn) [Example 2, l′-cyclobutyl-5-(3,4-diaza-bicyclo[4.1.0]hepten-2-one-5-yl)-spiro[benzofuran-2(3H),4′-piperidine]] |
| < 200 | < 200 | 207 to 209 | O=C1CCC(c2ccc3c(c2)CC2(CCN(C4CCC4)CC2)O3)=NN1 [Example 1, 6-(1-Cyclobutyl-spiro[benzofuran-2(3H),4′-piperidine]-5-yl)-4,5-dihydro-2H-pyridazin-3-one] |
| < 200 | < 200 |  | O=C1NN=C(c2ccc3c(c2)CCC2(CCN(C4CCC4)CC2)O3)C2CC12 (stereo not drawn) [Example 7, 1′-Cyclobutyl-6-(3,4-diaza-bicyclo[4.1.0]hept-4-en-2-one-5-yl)-spiro[3,4-dihydrobenzopyran-2,4′-piperidine]] |
| < 200 | < 200 |  | CC1(C)CC(c2ccc3c(c2)CCC2(CCN(C4CCC4)CC2)O3)=NNC1=O [Example 11, 1′-Cyclobutyl-6-(4,4-dimethyl-4,5-dihydro-2H-pyridazin-3-one-6-yl)-spiro[3,4-dihydrobenzopyran-2,4′-piperidine]] |
| < 200 | < 200 |  | O=C1NN=C(c2ccc3c(c2)CCC2(CCN(C4CCCC4)CC2)O3)C2CC12 (stereo not drawn) [Example 8, 1′-Cyclopentyl-6-(3,4-diaza-bicyclo[4.1.0]hept-4-en-2-one-5-yl)-spiro[3,4-dihydrobenzopyran-2,4′-piperidine]] |
| < 200 | < 200 | 193 to 194 | Clc1ccc(-c2ccc3c(c2)CC2(CCN(C4CCC4)CC2)O3)nn1 [Example 15, 1′-Cyclobutyl-5-(6-chloropyridazin-3-yl)spiro[benzofuran-2(3H)-4′-piperidine]] |
| < 200 | < 200 |  | Cc1c(-c2ccc3c(c2)COC2(CCN(C4CCC4)CC2)O3)n[nH]c(=O)c1C [Example 41] |
| < 200 | < 200 | 192 to 194 | O=C1CCC(c2ccc3c(c2)COC2(CCN(C4CCC4)CC2)O3)=NN1 [Example 36] |
| < 200 | < 200 |  | CC1CC(=O)NN=C1c1ccc2c(c1)COC1(CCN(C3CCC3)CC1)O2 (stereo not drawn) [Example 39] |
| < 200 | < 200 | 227 to 228 | O=c1ccc(-c2ccc3c(c2)CC2(CCN(C4CCC4)CC2)O3)n[nH]1 [Example 16, 1′-Cyclobutyl-5-(6-oxo-1,6-dihydropyridazin-3-yl) spiro[benzofuran-2(3H)-4′-piperidine]] |
| < 200 | < 200 |  | O=C1NN=C(c2ccc3c(c2)CCC2(CCN(C4CCC4)CC2)O3)C2CCC12 (single isomer, unassigned) [Example 23] |
